Where a SMILES comes first, the peptide text is derived from it. [ ]: non-standard residue; d: D form. αMeP = C[C@@]1(C(=O)O)CCCN1

Holding throughout (format): physicochemical
Data set [1] can be described thus: Dynamic vapor sorption-desorption (DVS) analysis. The method, then: DVS analysis was carried out TA Instruments Q5000 Dynamic Vapor Sorption analyzer. The instrument was calibrated with standard weights and a sodium bromide standard for humidity. Samples were analyzed at 25° C. with a maximum equilibration time of 60 minutes in 10% relative humidity (RH) steps from 5 to 95% RH (adsorption cycle) and from 95 to 5% RH (desorption cycle). Form A is non-hygroscopic.

A short description of data set [2]: Long-term (6 month) chemical stability, total impurities by HPLC. To be noted: for Total Impurities: 25 ± 2° C./60 ± 5% RH. The method, then: The long-term (6 month) chemical stability of Form A and amorphous trofinetide were tested under the same conditions: 25±2° C./60±5% relative humidity (RH). […] [table]
The nature of data set [3]: Stability under humidity conditions (two days exposure, XRPD / water content).

For `C[C@@]1(C(=O)N[C@@H](CCC(=O)O)C(=O)O)CCCN1C(=O)CN` [Form A, (2S)-2-[[(2S)-1-(2-aminoacetyl)-2-methylpyrrolidine-2-carbonyl]amino]pentanedioic acid] (H-Gly-[αMeP]-Glu-OH), the Hygroscopicity entry in data set [1] (25° C.) is given as “non-hygroscopic”. The “Solid form after DVS by XRPD” value in data set [1] (after DVS) is recorded as “remained as trofinetide Form A”. In data set [1] (exposed from 5% RH to 95% RH), the “Moisture uptake (adsorption cycle)” value is on record as “little moisture uptake”. In addition, the “Moisture loss (desorption cycle)” value in data set [1] (exposed from 95% RH to 5% RH) is given as “little moisture loss”. Also, the “Long-term chemical stability compared with amorphous trofinetide” value in data set [2] (6 month, 25±2° C./60±5% RH) was “more stable than amorphous trofinetide”. Moreover, the “Total Impurities” value in data set [2] (1 month) is given as 0.0%; in data set [2] (3 months) it was 0.03%; in data set [2] (6 months) it was “<PLOQ”; in data set [2] (Initial) it was “<PLOQ”. In addition, the “Stability under humidity conditions” value in data set [3] (large range of humidity conditions) is given as “stable under a large range of humidity conditions”. For the same compound, the “Solid form change under extreme dry conditions (XRPD)” value in data set [3] (open container exposed under 0% RH for two days) is “lost the water and became disordered”.

On to `C[C@@]1(C(=O)N[C@@H](CCC(=O)O)C(=O)O)CCCN1C(=O)CN` [amorphous trofinetide (Batch 1), glycyl-L-2-methylprolyl-L-glutamic acid] (H-Gly-[αMeP]-Glu-OH), for which the “Total Impurities” value in data set [2] (1 month) was 0.3%; in data set [2] (3 months) it was 0.8%; in data set [2] (6 months) it was 1.0%; in data set [2] (Initial) it was 0.3%.

Regarding `C[C@@]1(C(=O)N[C@@H](CCC(=O)O)C(=O)O)CCCN1C(=O)CN` [amorphous trofinetide (Batch 2), glycyl-L-2-methylprolyl-L-glutamic acid] (H-Gly-[αMeP]-Glu-OH), the “Total Impurities” value in data set [2] (3 months) is reported as 0.6%; in data set [2] (6 months), 0.9%; in data set [2] (Initial), 0.2%.

With `C[C@@]1(C(=O)N[C@@H](CCC(=O)O)C(=O)O)CCCN1C(=O)CN` [amorphous trofinetide (Batch 3), glycyl-L-2-methylprolyl-L-glutamic acid] (H-Gly-[αMeP]-Glu-OH), the “Total Impurities” value in data set [2] (1 month) was 0.2%; in data set [2] (3 months) it was 0.6%; in data set [2] (6 months) it was 0.8%; in data set [2] (Initial) it was 0.2%.

Values taken from patent US20260062382A1, “CRYSTALLINE FORMS OF TROFINETIDE” (ACADIA Pharmaceuticals Inc., priority 2021, published 2026).
